From patent publication US8946197B2, “Transglutaminase TG2 inhibitors, pharmaceutical compositions, and methods of use thereof” (CHDI Foundation, Inc., priority 2009, dated 2015) come the findings set out here.

Structures are written as SMILES. Values joined by “and” are separate entries in the source; they are usually repeats but may differ in a detail not shown here. Equal entries are not always repeated.

The IC50 is the concentration that gives 50% inhibition.

This assay concerns the target T1, human TG2 (Homo sapiens, UniProt P21980).
T1 sequence (P21980 1-687): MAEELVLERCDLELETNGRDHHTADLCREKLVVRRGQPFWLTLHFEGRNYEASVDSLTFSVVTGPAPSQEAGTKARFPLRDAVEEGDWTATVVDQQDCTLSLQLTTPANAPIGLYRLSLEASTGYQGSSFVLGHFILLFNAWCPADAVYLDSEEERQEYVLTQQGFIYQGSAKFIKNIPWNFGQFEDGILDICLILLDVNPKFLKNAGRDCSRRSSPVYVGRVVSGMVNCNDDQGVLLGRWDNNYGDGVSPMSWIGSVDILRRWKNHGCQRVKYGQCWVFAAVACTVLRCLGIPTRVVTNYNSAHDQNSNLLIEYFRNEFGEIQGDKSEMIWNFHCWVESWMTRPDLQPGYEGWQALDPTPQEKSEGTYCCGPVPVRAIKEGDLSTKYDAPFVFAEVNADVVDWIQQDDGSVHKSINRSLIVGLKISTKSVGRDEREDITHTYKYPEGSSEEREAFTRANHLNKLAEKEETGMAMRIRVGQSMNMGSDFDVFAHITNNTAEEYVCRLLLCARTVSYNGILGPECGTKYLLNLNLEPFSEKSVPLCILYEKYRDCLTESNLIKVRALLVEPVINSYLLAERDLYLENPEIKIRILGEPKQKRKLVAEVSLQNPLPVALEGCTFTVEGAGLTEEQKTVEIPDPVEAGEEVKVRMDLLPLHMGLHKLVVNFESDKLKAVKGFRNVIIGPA
As to the kind of experiment: fluorescent screening assay for human TG2. The format is biochemical. To be noted: 20 nM TG2, 8 μM N,N-dimethylated Casein, 16 μM KxD, pH 7.4, 37° C. The protocol: (§1) The fluorescent screening assay for human TG2 was performed as described herein: Assay conditions were 20 nM TG2, 8 μM N,N-dimethylated Casein (NMC) and 16 μM K×D (used for all transglutaminase assays) in 25 mM Hepes, pH 7.4, 250 mM NaCl, 2 mM MgCl2, 0.5 mM CaCl2, 0.2 mM DTT, 0.05% Pluronic F-127 at 37° C. A time point was taken with a microplate reader (Safire or Ultra, Tecan; ex: 350 nm, em: 535 nm) every 3 minutes for up to 2 hours and the initial linear reaction progress was used to determine the reaction velocity as a measure for enzyme activity. Assay conditions were identical for human TG6 and similar for human TG1 and mouse TG2 apart from enzyme concentration (mTG2 at 5 nM; TG1 at 10 nM) and CaCl2 concentration (0.2 mM for mTG2; 0.05 mM for TG1). Factor XIIIa was activated using 0.1 μg/μl thrombin (Sigma) in 35 mM Tris pH 8.0 for 20 min at 30° C. and the transamidation reaction was performed with 20 nM Factor XIIIa in 50 mM Tris pH 8.0, 1.25 mM CaCl2, 0.05% Pluronic, 0.2 mM DTT. TG3 was activated with 0.02 μg/μl thrombin under the same conditions as Factor XIIIa and assay conditions were 10 nM TG3 in 50 mM Hepes, pH 8, 20 mM CaCl2, 0.2 mM DTT, 0.05% Pluronic F-127.
as §1, with “A” for “The”
Take `C=CC(=O)Nc1ccc(S(=O)(=O)N2CCN(c3nc4ccccc4s3)CC2)cc1` [N-[4-(4-Benzothiazol-2-yl-piperazine-1-sulfonyl)-phenyl]-acrylamide]: the IC50 was < 100 nM and 100 to 1000 nM.

For the molecule `C=CC(=O)Nc1ccc(S(=O)(=O)N2CCN(C(=O)OC(C)(C)C)CC2)c(OC)c1` [4-(4-Acryloylamino-2-methoxy-benzenesulfonyl)-piperazine-1-carboxylic acid tert-butyl ester], the IC50 was in the range of 1000 to 25000 nM.

As to `C=CC(=O)Nc1ccc(S(=O)(=O)N2CCN(c3cccc(-c4ccccc4)c3)CC2)cc1` [N-[4-(4-Biphenyl-3-yl-piperazine-1-sulfonyl)-phenyl]-acrylamide], the IC50 fell in the range of 1000 to 25000 nM.

In the case of `C=CC(=O)Nc1ccc(S(=O)(=O)N2CCN(C(=O)OCc3ccc(C(C)(C)C)cc3)CC2)cc1` [4-(4-Acryloylamino-benzenesulfonyl)-piperazine-1-carboxylic acid 4-tert-butyl-benzyl ester], the IC50 is 1000 to 25000 nM.

As to `C=CC(=O)Nc1ccc(S(=O)(=O)N(C)Cc2cccc(CN3CCCC3)c2)cc1` [N-{4-[Methyl-(3-pyrrolidin-1-ylmethyl-benzyl)-sulfamoyl]-phenyl}-acrylamide], the IC50 lay within 1000 to 25000 nM.

In the case of `C=CC(=O)Nc1ccc(S(=O)(=O)N2CCN(c3nccc(C(F)(F)F)n3)CC2)cc1` [N-{4-[4-(4-Trifluoromethyl-pyrimidin-2-yl)-piperazine-1-sulfonyl]-phenyl}-acrylamide], the IC50 is < 100 nM and 100 to 1000 nM.

As to `C=CC(=O)Nc1ccc(S(=O)(=O)N2CCN(C(=O)OCc3cccc(F)c3)CC2)cc1` [4-(4-Acryloylamino-benzenesulfonyl)-piperazine-1-carboxylic acid 3-fluoro-benzyl ester], the IC50 was 100 to 1000 nM and < 100 nM.

For the molecule `C=CC(=O)Nc1ccc(S(=O)(=O)N2CCN(C(=O)Cc3ccc(Oc4ccccc4)cc3)CC2)cc1` [N-(4-{4-[2-(4-Phenoxy-phenyl)-acetyl]-piperazine-1-sulfonyl}-phenyl)-acrylamide], the IC50 is 100 to 1000 nM and < 100 nM.

Molecule `C=CC(=O)Nc1ccc(S(=O)(=O)N2CCC(c3ccco3)=Nc3ccccc32)cc1` [N-[4-(4-Furan-2-yl-2,3-dihydro-benzo[β][1,4]diazepine-1-sulfonyl)-phenyl]-acrylamide] showed an IC50 of 1000 to 25000 nM.

`C=CC(=O)Nc1ccc(S(=O)(=O)N2CCN(C(=O)OCc3ccccc3Cl)CC2)cc1` [4-(4-Acryloylamino-benzenesulfonyl)-piperazine-1-carboxylic acid 2-chloro-benzyl ester]: the IC50 is 100 to 1000 nM and < 100 nM.

On to `C=CC(=O)Nc1ccc(S(=O)(=O)N2CCN(C(=O)N3CCCCC3)CC2)cc1` [N-{4-[4-(Piperidine-1-carbonyl)-piperazine-1-sulfonyl]-phenyl}-acrylamide], for which the IC50 is 100 to 1000 nM and < 100 nM.

`C=CC(=O)Nc1ccc(S(=O)(=O)N(C)Cc2ccc(CN3CCN(C)CC3)cc2)cc1` [N-(4-{Methyl-[4-(4-methyl-piperazin-1-ylmethyl)-benzyl]-sulfamoyl}-phenyl)-acrylamide] displayed an IC50 of 1000 to 25000 nM.

Molecule `C=CC(=O)Nc1ccc(S(=O)(=O)N2CCN(C(=O)OCc3ccc(CCCC)cc3)CC2)cc1` [4-(4-Acryloylamino-benzenesulfonyl)-piperazine-1-carboxylic acid 4-butyl-benzyl ester] had a half-maximal inhibitory concentration (IC50) of 1000 to 25000 nM.

Take `C=CC(=O)Nc1ccc(S(=O)(=O)N2CCN(c3ncccc3C)CC2)cc1` [N-{4-[4-(3-Methyl-pyridin-2-yl)-piperazine-1-sulfonyl]-phenyl}-acrylamide]: the IC50 was 100 to 1000 nM and < 100 nM.

In the case of `C=CC(=O)Nc1cccc(S(=O)(=O)N2CCN(CCc3ccccc3)CC2)c1` [N-[3-(4-Phenethyl-piperazine-1-sulfonyl)-phenyl]-acrylamide], the IC50 is 1000 to 25000 nM.

For the molecule `C=CC(=O)Nc1ccc(S(=O)(=O)NC(C)C(=O)N2CCCCC2)cc1` (centres unmarked) [N-[4-(1-Methyl-2-oxo-2-piperidin-1-yl-ethylsulfamoyl)-phenyl]-acrylamide], the IC50 fell in the range of 1000 to 25000 nM.

Molecule `C=CC(=O)Nc1ccc(S(=O)(=O)N2CCN(C34CC5CC(CC(C5)C3)C4)CC2)cc1` [N-[4-(4-Adamantan-1-yl-piperazine-1-sulfonyl)-phenyl]-acrylamide] gave a concentration for half-maximal inhibition (IC50) of 1000 to 25000 nM.

Take `C=CC(=O)Nc1ccc(S(=O)(=O)N2CCC(C(=O)N3CCCCC3)CC2)cc1` [N-{4-[4-(Piperidine-1-carbonyl)-piperidine-1-sulfonyl]-phenyl}-acrylamide]: the IC50 was 100 to 1000 nM and < 100 nM.

With `C=CC(=O)Nc1ccc(S(=O)(=O)N2CCN(C(=O)OCc3cccc(Cl)c3)CC2)cc1` [4-(4-Acryloylamino-benzenesulfonyl)-piperazine-1-carboxylic acid 3-chloro-benzyl ester], the IC50 was 100 to 1000 nM and < 100 nM.

In the case of `C=CC(=O)Nc1ccc(S(=O)(=O)N2CCN(c3ccc(C)cn3)CC2)cc1` [N-{4-[4-(5-Methyl-pyridin-2-yl)-piperazine-1-sulfonyl]-phenyl}-acrylamide], the IC50 is < 100 nM and 100 to 1000 nM.

For the molecule `C=CC(=O)Nc1ccc(S(=O)(=O)N2CCN(C(=O)OCc3ccccc3)C(CC(=O)OC)C2)cc1` (centres unmarked) [4-(4-Acryloylamino-benzenesulfonyl)-2-methoxycarbonylmethyl-piperazine-1-carboxylic acid benzyl ester], the IC50 is 100 to 1000 nM and < 100 nM.

As for `C=CC(=O)Nc1ccc(S(=O)(=O)N2CCNCC2)c(OC)c1` [N-[3-Methoxy-4-(piperazine-1-sulfonyl)-phenyl]-acrylamide], the IC50 fell in the range of 1000 to 25000 nM.

On to `C=CC(=O)Nc1ccc(S(=O)(=O)N2CCN(C(=O)Oc3ccccc3)CC2)cc1` [4-(4-Acryloylamino-benzenesulfonyl)-piperazine-1-carboxylic acid phenyl ester], for which the IC50 was 100 to 1000 nM and < 100 nM.

In the case of `C=CC(=O)Nc1ccc(S(=O)(=O)N2CCN(C(=O)C34CC5CC(CC(C5)C3)C4)CC2)cc1` [N-{4-[4-(Adamantane-1-carbonyl)-piperazine-1-sulfonyl]-phenyl}-acrylamide], the IC50 is 100 to 1000 nM and < 100 nM.

Molecule `C=CC(=O)N(C)c1ccc(S(=O)(=O)N2CCN(C(=O)OC(C)(C)C)CC2)cc1` [4-[4-(Acryloyl-methyl-amino)-benzenesulfonyl]-piperazine-1-carboxylic acid tert-butyl ester] displayed an IC50 of 1000 to 25000 nM.

Regarding `CC#CC(=O)Nc1ccc(S(=O)(=O)N2CCN(C(=O)OC(C)(C)C)CC2)cc1` [4-[4-(1-Oxo-but-2-ynylamino)-benzenesulfonyl]-piperazine-1-carboxylic acid tert-butyl ester], the IC50 was in the range of 1000 to 25000 nM.

For the molecule `C=CC(=O)Nc1ccc(S(=O)(=O)N2CCN(C(=O)OCc3c(F)cccc3F)CC2)cc1` [4-(4-Acryloylamino-benzenesulfonyl)-piperazine-1-carboxylic acid 2,6-difluoro-benzyl ester], the IC50 is 100 to 1000 nM and < 100 nM.

The molecule `C=CC(=O)Nc1ccc(S(=O)(=O)N2CCN(Cc3ccc(-c4ccccc4)cc3)CC2)cc1` [N-[4-(4-Biphenyl-4-ylmethyl-piperazine-1-sulfonyl)-phenyl]-acrylamide] yielded an IC50 of 1000 to 25000 nM.

On to `C=CC(=O)Nc1ccc(S(=O)(=O)N2CCN(C(=O)N3CCC4CCCCC4C3)CC2)cc1` (centres unmarked) [N-{4-[4-(Octahydro-isoquinoline-2-carbonyl)-piperazine-1-sulfonyl]-phenyl}-acrylamide], for which the IC50 was 100 to 1000 nM and < 100 nM.
